Earlier results, collected in patent US3981916A, “Reduction of nitroparaffin substrates to their corresponding oximes using a silver salt catalyst” (priority 1970, dated 1976).

conditions: 25°C, aqueous solution; literature values (Table I)

pKa (First Acid Dissociation Constant) | SMILES
9.98 | NCCN [Ethylenediamine]
11.50 | CN(C)C(=N)N(C)C [Tetramethylguanidine]
9.92 | NCCNCCNCCN [Triethylenetetramine]

same assay, conditions: water

pKa (First Acid Dissociation Constant) | SMILES
11.1 | NCCCCCCN [1,6-diaminohexane]
9.35 | OCCNCCO [Diethanolamine]
10.59 | CCCCN [n-Butylamine]

More lines, now with the values behind:

SMILES | pKa (First Acid Dissociation Constant)
NCCCN [1,3-diaminopropane] | 10.54
NCCCNCCCN [3,3'-iminobispropylamine] | 10.70
CN(C)CCN(C)C [N,N,N,N',-Tetramethyl-ethylenediamine] | 5.85
NCCNCCNCCNCCN [Tetraethylenepentamine] | 9.9
CCCCCCN [n-Hexylamine] | 10.40
